Here are results for 14 compounds from ChEMBL document CHEMBL1136080, “(+/-)-2-(3-Piperidyl)-1,2,3,4-tetrahydroisoquinolines as a new class of specific bradycardic agents” (2003).

One may read the EC30 as the concentration at which the effect reaches the 30% level.

Common to all, as to format: functional
Assay [1] concerns Rattus norvegicus. The assay is described as follows: Dose to produce minimal influence on mean blood pressure in anesthetized rats.
The subject of assay [2] is Rattus norvegicus. The assay is described as follows: Percentage change in heart rate from the initial value in urethane-anesthetized rats at 3 mg/kg intravenous dose.
For the next assay, the species on record is Cavia porcellus. The assay is described as follows: Concentration required to produce 30% reduction (in vitro) from the initial spontaneous beat rates in isolated guinea pig atrium. To be noted: Cardiac atrium.

Take `COc1cc2c(cc1OC)CN(C1CCCN(CCCOc3ccc4c(c3)OCO4)C1)CC2` (centres undefined): the Dose in the assay with Rattus norvegicus [1] is 10 mg/kg. Also, the Change in the assay with Rattus norvegicus [2] was 47%. Moreover, the 30% effect level in the assay listed under Cavia porcellus (EC30) was put at 250 nM. `COc1cc2c(cc1OC)CN(C1CCCN(CCCCc3ccccc3)C1)CC2` (centres undefined) came in with a Change in the assay with Rattus norvegicus [2] of 23%. In addition, in the assay listed under Cavia porcellus, the 30% effect level (EC30) was put at 540 nM. `COc1cc2c(cc1OC)CN(C1CCCN(CCCc3ccccc3)C1)CC2` (centres undefined): in the assay listed under Cavia porcellus, the concentration for an effect of 30% (EC30) was 1200 nM. In turn, `COc1cc2c(cc1OC)CN(C1CCCN(CCCOc3ccc4c(c3)-c3ccccc3C4)C1)CC2` (centres undefined) registered an EC30 in the assay listed under Cavia porcellus of 4100 nM. With `COc1ccc(OCCCN2CCCC(N3CCc4cc(OC)c(OC)cc4C3)C2)cc1OC` (centres undefined), the Change in the assay on Rattus norvegicus [2] was 47%. Also, in the assay listed under Cavia porcellus, the concentration for an effect of 30% (EC30) came out at 380 nM. In turn, `COc1cc2c(cc1OC)CN(C1CCCN(CCCOc3cc(OC)c(OC)c(OC)c3)C1)CC2` (centres undefined) yielded a 30% effect concentration (EC30) in the assay listed under Cavia porcellus of 1500 nM.

`COc1cc2c(cc1OC)CN(C1CCCN(CCCOc3ccc4ccccc4c3)C1)CC2` (centres undefined) displayed a Change in the assay on Rattus norvegicus [2] of 23%. In the assay filed under Cavia porcellus, the 30% effect concentration (EC30) came to 840 nM.

Compound `COc1cc2c(cc1OC)CN(C1CCCN(CCCCCc3ccccc3)C1)CC2` (centres undefined) showed an EC30 in the assay filed under Cavia porcellus of 1300 nM. For `COc1ccc(OCCCN2CCCC(N3CCc4cc(OC)c(OC)cc4C3)C2)cc1` (centres undefined), the Change in the assay on Rattus norvegicus [2] amounted to 40%. In the assay filed under Cavia porcellus, this compound had an EC30 of 390 nM.

Regarding `COc1cc2c(cc1OC)CN(C1CCCN(Cc3ccccc3)C1)CC2` (centres undefined), the Change in the assay with Rattus norvegicus [2] was found to be 33%. Moreover, the EC30 in the assay filed under Cavia porcellus amounted to 830 nM.

For the compound `COc1cc2c(cc1OC)CN(C1CCCN(CCCOc3ccccc3)C1)CC2` (centres undefined), the Change in the assay with Rattus norvegicus [2] amounted to 40%. In the assay listed under Cavia porcellus, this compound gave a 30% effect concentration (EC30) of 430 nM. On the same counts, the results for `COc1cc2c(cc1OC)CN(C1CCCN(CCCOc3ccc4c(c3)CCC4)C1)CC2` (centres undefined) are 38% and 660 nM. `COc1cc2c(cc1OC)CN(C1CCCN(CCc3ccccc3)C1)CC2` (centres undefined): in the assay filed under Cavia porcellus, the concentration for an effect of 30% (EC30) turned out to be 2200 nM. `COc1ccc(CCN(C)CCCN2CCc3cc(OC)c(OC)cc3CC2=O)cc1OC` [ZATEBRADINE] registered a Change with Rattus norvegicus [2] of 47%. In the assay filed under Cavia porcellus, this compound had a 30% effect concentration (EC30) of 260 nM.
